Tests used:
[1] = Saturation solubility in ddH2O; assay type: physicochemical; settings: for Saturation & Solubility: ddH2O, 25° C., 100 rpm, 90 minutes, triplicates, mean ± SD; for water solubility (in words): saturation solubility study
Method: Determination of Saturation Solubility of Chidamide-HCl, Chidamide-H2SO4, and Celecoxib-Na Salts. Sample of 5 mg of chidamide-HCl, chidamide-H2SO4, or celecoxib-Na salts was added to 5 ml volumetric flasks containing ddH2O and shook at 100 rpm in an incubator at 25° C. for 90 minutes. The resulting suspension was filtered through a 0.22 μm filter. The concentrations of chidamide-HCl, chidamide-H2SO4, and celecoxib-Na salts were determined spectrophotometrically at 256 nm, 256 nm, and 253 nm, respectively. The saturation solubility of each sample was determined in triplicates and the mean value and standard deviation were reported. Preparation of standard curves is described as below.

[2] = low solubility and high permeability; cited from earlier work

SMILES	Saturation & Solubility [1]	water solubility (in words) [1]	BCS class [2]
Cc1ccc(-c2cc(C(F)(F)F)nn2-c2ccc(S(N)(=O)=O)cc2)cc1 [Celecoxib-API, 4-[5-(4-Methylphenyl)-3-(trifluoromethyl)pyrazol-1-yl]benzenesulfonamide, reference compound]	BDL	water-insoluble	class II
Nc1cc(F)ccc1NC(=O)c1ccc(CNC(=O)/C=C/c2cccnc2)cc1 [Chidamide-API, 4-(((E)-3-(pyridin-3-yl)acrylamido)methyl)-N-(2-amino-4-fluorophenyl)benzamide, reference compound]	BDL	water-insoluble	–
